Measured values published in patent US9120780B2, “Indole or indazole derivative or salt thereof” (TAIHO PHARMACEUTICAL CO., LTD., priority 2011, dated 2015).

Key:
[1] = molecular target: human HSP90 alpha protein (N-terminal, amino acids 2-236) (Homo sapiens (Human), UniProt P07900); experiment: Measurement of HSP90-binding activity (AlphaScreen competitive assay, biotin-labeled geldanamycin); conditions: inhibition of biotin-labeled geldanamycin binding to purified HSP90; read-out: HSP-binding activity IC50
Method: First, a solution of purified HSP90 was prepared as follows. […] The pET-HSP90N was introduced into Escherichia coli cells (BL21 (DE3), Stratagene Inc.), and then the Escherichia coli cells were cultured in the presence of 0.5 mM isopropyl-beta-D-thiogalactopyranoside (Sigma-Aldrich Corp.) at 37° C. for 4 hours. The Escherichia coli cells were collected, suspended in a lysis buffer (50 mM Tris-HCl (pH 7.5), 200 mM NaCl), and sonicated. The sonicated cell solution was centrifuged (40,000×g, 20 minutes) to obtain supernatant as a crude extract. The crude extract was fractionated by Ni Sepharose High Performance (GE Healthcare Japan Corporation) chromatography and HiLoad 26/60 Superdex 75 pg (GE Healthcare Japan Corporation), and the fraction in which HSP90 protein was concentrated was prepared so as to be a 50 mM Tris-HCl (pH 7.5)/20% glycerol solution as a purified HSP90 solution. The purified HSP90 solution was divided and stored at −80° C. until use.
The HSP90-binding activity was measured by an AlphaScreen competitive assay system. […] After reaction at room temperature for 2 hours, biotin-labeled geldanamycin was added to each reaction solution in an amount of 40 nM, followed by reaction for further 1 hour. […] After reaction in a dark place at room temperature for 1 hour, the fluorescence intensity in each well was measured with a multilabel plate reader, EnVision (Perkin Elmer, Inc.). The inhibition rate (%) of biotin-labeled geldanamycin binding by a compound of the present invention was determined by the following equation using the fluorescence signal of a test substance-free group (control) as a control. […] Inhibition rate (%)=(C−T)/C×100 T: signal in a well to which a test substance was added C: signal in a well to which no test substance was added

SK-BR-3 cells = experiment: Measurement of cell growth inhibition (crystal violet staining); type: cell-based; conditions: Homo sapiens, 72 hours culture with test substance
Method: Cell growth was measured by a crystal violet staining method. […] The cells were cultured in a 5% CO2 incubator at 37° C. for 24 hours, and then test substances were added to the plate, followed by culturing for further 72 hours. […] The plate was left to stand at room temperature for 20 minutes for staining the cells. The plate was washed with water and dried, and 100 μL of a mixed solution of 0.05 M NaH2PO4 and ethanol (mixture in equal amounts) was added to each well. The absorbance at 540 nm was measured with a microplate reader (MTP-450, Corona Electric Co., Ltd.) as an index of the number of cells in each well. The inhibition rate (%) of cell growth by a compound of the present invention was determined by the following equation using the absorbance of a drug-untreated group (control) as a control. […] Inhibition rate (%)=(C−T)/C×100 T: absorbance in a well to which a test substance was added C: absorbance in a well to which no test substance was added

SMILES	IC50 [1] [µM]	IC50 (SK-BR-3 cells) [µM]
CC(C)Nc1cc(C(N)=O)ccc1-n1nc(C(C)C)c2c(-n3cnc(-c4cccnc4)c3)cccc21 [Example 10, 4-(3-Isopropyl-4-(4-(pyridin-3-yl)-1H-imidazol-1-yl)-1H-indazol-1-yl)-3-(isopropylamino)benzamide]	0.25	0.1
CC(C)c1nn(-c2ccc(C(N)=O)cc2Cl)c2cccc(-n3cnc(-c4cnn(C)c4)c3)c12 [Example 5, 3-Chloro-4-(3-isopropyl-4-(4-(1-methyl-1H-pyrazol-4-yl)-1H-imidazol-1-yl)-1H-indazol-1-yl)benzamide]	0.24	0.27
CCNc1cc(-n2nc(C(F)(F)F)c3c(-n4cnc(-c5cnn(C)c5)c4)cccc32)ccc1C(N)=O [Example 15, 2-(Ethylamino)-4-(4-(4-(1-methyl-1H-pyrazol-4-yl)-1H-imidazol-1-yl)-3-(trifluoromethyl)-1H-indazol-1-yl)benzamide]	0.23	0.02
NC(=O)c1ccc(-n2ccc3ccccc32)c(Cl)c1 [Comparative Example 6, reference compound]	> 100	
COc1cc2ccn(-c3ccc(C(N)=O)c(Nc4ccccc4)c3)c2cc1OC [Comparative Example 4, reference compound]	> 10	> 10
CC(C)c1nn(-c2ccc(C(N)=O)cc2NC2CCC2)c2cccc(-n3cnc(-c4cnn(C)c4)c3)c12 [Example 13, 3-(Cyclobutylamino)-4-(3-Isopropyl-4-(4-(1-methyl-1H-pyrazol-4-yl)-1H-imidazol-1-yl)-1H-indazol-1-yl)benzamide]	0.2	0.06
CCc1cc(C(N)=O)ccc1-n1nc(C(F)(F)F)c2c(-n3cnc(-c4cnn(C)c4)c3)cccc21 [Example 18, 3-Ethyl-4-(4-(4-(1-methyl-1H-pyrazol-4-yl)-1H-imidazol-1-yl)-3-(trifluoromethyl)-1H-indazol-1-yl)benzamide]	0.09	0.05
CCc1cc(C(N)=O)ccc1-n1nc(C(F)(F)F)c2c(-n3cnc(-c4cccnc4)c3)cccc21 [Example 19, 3-Ethyl-4-(4-(4-(pyridin-3-yl)-1H-imidazol-1-yl)-3-(trifluoromethyl)-1H-indazol-1-yl)benzamide]	0.17	0.1
CC(C)Nc1cc(C(N)=O)ccc1-n1nc(C(C)C)c2c(-n3cnc(-c4cnn(C)c4)c3)cccc21 [Example 12, 4-(3-Isopropyl-4-(4-(1-methyl-1H-pyrazol-4-yl)-1H-imidazol-1-yl)-1H-indazol-1-yl)-3-(isopropylamino)benzamide]	0.12	0.06
Cc1cc(C(N)=O)ccc1-n1nc(C(C)C)c2c(-n3cnc(-c4cccnc4)c3)cccc21 [Example 4, 4-(3-Isopropyl-4-(4-(pyridin-3-yl)-1H-imidazol-1-yl)-1H-indazol-1-yl)-3-methylbenzamide]	0.16	0.14
CC(C)(C)Nc1cc(-n2nc(C(F)(F)F)c3c(-n4cnc(-c5cccnc5)c4)cccc32)ccc1C(N)=O [Example 16, 2-(Tert-butylamino)-4-(4-(4-(pyridin-3-yl)-1H-imidazol-1-yl)-3-(trifluoromethyl)-1H-indazol-1-yl)benzamide]	0.29	0.03
Cc1cc(C(N)=O)ccc1-n1nc(C(F)(F)F)c2c(-n3cnc(-c4cccnc4)c3)cccc21 [Example 17, 3-Methyl-4-(4-(4-(pyridin-3-yl)-1H-imidazol-1-yl)-3-(trifluoromethyl)-1H-indazol-1-yl)benzamide]	0.49	0.3
COc1ccc2ccn(-c3ccc(C(N)=O)c(NC4CCC(O)CC4)c3)c2c1 (stereo not shown) [Comparative Example 1, reference compound]	> 100	
CC(C)c1nn(-c2ccc(C(N)=O)cc2Cl)c2cccc(-n3cnc(-c4cccnc4)c3)c12 [Example 3, 3-Chloro-4-(3-isopropyl-4-(4-(pyridin-3-yl)-1H-imidazol-1-yl)-1H-indazol-1-yl)benzamide]	0.74	0.56
CC(C)c1nn(-c2ccc(C(N)=O)nc2)c2cccc(-n3cnc(-c4cnn(C)c4)c3)c12 [Example 7, 5-(3-Isopropyl-4-(4-(1-methyl-1H-pyrazol-4-yl)-1H-imidazol-1-yl)-1H-indazol-1-yl)-2-pyridinecarboxyamide]	0.37	1.19
COc1cccc2c1ccn2-c1ccc(C(N)=O)c(NC2CCC(O)CC2)c1 (stereo not shown) [Comparative Example 2, reference compound]	> 100	
COc1ccc2c(c1)cc(C)n2-c1ccc(C(N)=O)c(Nc2ccccc2)c1 [Comparative Example 5, reference compound]	> 100	> 10
COc1cc2ccn(-c3ccc(C#N)c(Nc4ccccc4)c3)c2cc1OC [Comparative Example 3, reference compound]	> 10	

Second part, the molecule after the results:

IC50 [1] [µM]	IC50 (SK-BR-3 cells) [µM]	SMILES
0.19	0.05	Cc1cn(-c2ccc(C(N)=O)c(NC(C)(C)C)c2)c2cccc(-n3cnc(-c4cnn(C)c4)c3)c12 [Example 46, 2-(Tert-butylamino)-4-{3-methyl-4-(4-(1-methyl-1H-pyrazolo-4-yl)-1H-imidazolo-1-yl)-1H-indol-1-yl}benzamide]
0.28	0.17	NC(=O)c1ccc(-n2nc(C(F)(F)F)c3c(-n4cnc(-c5cccnc5)c4)cccc32)c(NC2CCC2)c1 [Example 23, 3-(Cyclobutylamino)-4-(4-(4-(pyridin-3-yl)-1H-imidazol-1-yl)-3-(trifluoromethyl)-1H-indazol-1-yl)benzamide]
0.43	0.12	Cc1cn(-c2ccc(C(N)=O)c(NC(C)(C)C)c2)c2cccc(-n3cnc(-c4cccnc4)c3)c12 [Example 47, 2-(Tert-butylamino)-4-{3-methyl-4-(4-(pyridin-3-yl)-1H-imidazolo-1-yl)-1H-indol-1-yl}benzamide]
0.15	0.07	Cn1cc(-c2cn(-c3cccc4c3c(C(F)(F)F)nn4-c3ccc(C(N)=O)cc3NC3CCC3)cn2)cn1 [Example 21, 3-(Cyclobutylamino)-4-(4-(4-(1-methyl-1H-pyrazol-4-yl)-1H-imidazol-1-yl)-3-(trifluoromethyl)-1H-indazol-1-yl)benzamide]
0.26	0.01	CCc1cn(-c2ccc(C(N)=O)c(NC(C)(C)C)c2)c2cccc(-n3cnc(-c4cnn(C)c4)c3)c12 [Example 48, 2-(Tert-butylamino)-4-{3-ethyl-4-(4-(1-methyl-1H-pyrazolo-4-yl)-1H-imidazolo-1-yl)-1H-indol-1-yl}benzamide]
0.14	0.12	CC(C)Nc1cc(C(N)=O)ccc1-n1nc(C(F)(F)F)c2c(-n3cnc(-c4cccnc4)c3)cccc21 [Example 22, 3-(Isopropylamino)-4-(4-(4-(pyridin-3-yl)-1H-imidazol-1-yl)-3-(trifluoromethyl)-1H-indazol-1-yl)benzamide]
0.16	0.06	CCc1cc(C(N)=O)ccc1-n1cc(C(C)C)c2c(-n3cnc(-c4cnn(C)c4)c3)cccc21 [Example 51, 3-Ethyl-4-{3-isopropyl-4-(4-(1-methyl-1H-pyrazolo-4-yl)-1H-imidazolo-1-yl)-1H-indol-1-yl}benzamide]
0.14	0.09	CC(C)Nc1cc(C(N)=O)ccc1-n1nc(C(F)(F)F)c2c(-n3cnc(-c4cnn(C)c4)c3)cccc21 [Example 20, 3-(Isopropylamino)-4-(4-(4-(1-methyl-1H-pyrazol-4-yl)-1H-imidazol-1-yl)-3-(trifluoromethyl)-1H-indazol-1-yl)benzamide]
0.12	0.03	CCCc1cn(-c2ccc(C(N)=O)cc2CC)c2cccc(-n3cnc(-c4cnn(C)c4)c3)c12 [Example 49, 3-Ethyl-4-{4-(4-(1-methyl-1H-pyrazolo-4-yl)-3-propyl-1H-imidazolo-1-yl)-1H-indol-1-yl}benzamide]
0.1	0.17	NC(=O)c1ccc(-n2nc(C(F)(F)F)c3c(-n4cnc(-c5cccnc5)c4)cccc32)c(N)c1 [Example 25, 3-Amino-4-(4-(4-(pyridin-3-yl)-1H-imidazol-1-yl)-3-(trifluoromethyl)-1H-indazol-1-yl)benzamide]
